Marks after values point to notes of the source that are not given here.
Columns and labels:
[1] = test system: sunflower genotypes A122T/A205V (mean of H3, H4); experiment: imazapyr whole plant greenhouse test (Example 2); type: in vivo; conditions: for Phytotoxicity Index (0-9) 14 days after treatment / biomass accumulation 14 days after treatment, % of untreated / plant height 14 days after treatment, % of untreated: A122T/A205V Mean; for height reduction: heterozygotes A122T/A205V, of the untreated controls; for reduction in biomass weight: heterozygous A122T/A205V
Experimental: (§1) Seeds were sown in Petri dishes and, after germination, plantlets were transplanted to pots of 10 cm of diameter in a potting media consisting of equal parts of vermiculite, soil and sand. Plants were grown in a greenhouse under natural light conditions supplemented with 400 W sodium halide lamps to provide a 16 hr daylength. Day/night temperatures were 25 and 20 ° C., respectively. At the V2-V4 stage (Schneiter & Miller (1981) Crop Sci. 21:901-903) 10 plants of each genotype were randomly assigned to each treatment consisting of eight imazapyr doses (0, 40, 80, 160, 240, 320, 400 and 480 g ai/ha, corresponding to untreated, 0.5×, 1×, 2×, 3×, 4×, 5× and 6×, respectively), and a zero-time biomass determination. Experiment was arranged as a randomized block design with a full factorial (sunflower line×treatment) arrangement of treatments and 10 replications.
(§2) On the day of herbicide application ten plants of each genotype were cut at the cotyledonal node and dried at 60° C. for 48 hrs for zero-time dried weight determination.
(§3) The remaining plants were maintained for 14 days after imazapyr treatment (DAT) and their height, Phytotoxicity Index (PI) and above ground dry biomass were determined Height was determined as the distance between the cotyledonal node and the apex of each plant. Above ground biomass data from each line were converted to biomass accumulation after application by subtracting the appropriate average zero- time biomass from each sample. Dry biomass data were converted to percentages of the untreated control plants within each line to allow direct comparisons between groups.

[2] = test system: sunflower hybrid H3 (L3 × L2), A205V + A122T; experiment: imazapyr whole plant greenhouse test (Example 2); type: in vivo
Experimental: as §1, §2, §3

[3] = test system: hybrids carrying the A205V mutation event (A205V/A205V, A205V/WT); experiment: field trial, imazapyr at V8 or R1 stage (Example 4); conditions: 160 g ai/ha applied at R1; 14 DAT
[4] = test system: sunflower hybrid H5 (L3 x WT), 122/Wild type; experiment: as above; conditions: H5 122/Wild type
[5] = test system: sunflower line BTK112 (conventional); experiment: tolerance to imidazolinones, greenhouse (Example 8)

CC(C)C1(C)N=C(c2ncccc2C(=O)O)NC1=O (centres unmarked) [imazapyr]
Phytotoxicity Index (0-9) 14 days after treatment ([1]; dose 1 (1x, 80 g ai/ha)): 0.5
biomass accumulation 14 days after treatment, % of untreated ([1]; dose 1 (1x, 80 g ai/ha)): 98.9%
plant height 14 days after treatment, % of untreated ([1]; dose 1 (1x, 80 g ai/ha)): 98.3%
Phytotoxicity Index (0-9) 14 days after treatment ([1]; dose 2 (2x, 160 g ai/ha)): 0.5
biomass accumulation 14 days after treatment, % of untreated ([1]; dose 2 (2x, 160 g ai/ha)): 93.2** %
plant height 14 days after treatment, % of untreated ([1]; dose 2 (2x, 160 g ai/ha)): 98.3%
Phytotoxicity Index (0-9) 14 days after treatment ([1]; dose 3 (3x, 240 g ai/ha)): 0.5
biomass accumulation 14 days after treatment, % of untreated ([1]; dose 3 (3x, 240 g ai/ha)): 89.5** %
plant height 14 days after treatment, % of untreated ([1]; dose 3 (3x, 240 g ai/ha)): 96.9%
Phytotoxicity Index (0-9) 14 days after treatment ([1]; dose 4 (4x, 320 g ai/ha)): 0.5
biomass accumulation 14 days after treatment, % of untreated ([1]; dose 4 (4x, 320 g ai/ha)): 86.4** %
plant height 14 days after treatment, % of untreated ([1]; dose 4 (4x, 320 g ai/ha)): 93.5** %
Phytotoxicity Index (0-9) 14 days after treatment ([1]; dose 5 (5x, 400 g ai/ha)): 0.6
biomass accumulation 14 days after treatment, % of untreated ([1]; dose 5 (5x, 400 g ai/ha)): 75.4** %
plant height 14 days after treatment, % of untreated ([1]; dose 5 (5x, 400 g ai/ha)): 76.3** %
Phytotoxicity Index (0-9) 14 days after treatment ([1]; dose 6 (6x, 480 g ai/ha)): 1
biomass accumulation 14 days after treatment, % of untreated ([1]; dose 6 (6x, 480 g ai/ha)): 67.5** %
plant height 14 days after treatment, % of untreated ([1]; dose 6 (6x, 480 g ai/ha)): 61.8** %
height reduction ([1]; 0.5x): 0.6%
height reduction ([1]; 6x): 38.2%
reduction in biomass weight ([1]; 0.5x): 0.3%
reduction in biomass weight ([1]; 6x): 33%
Phytotoxicity Index (0-9) 14 days after treatment ([2]; dose 0.5 (0.5x, 40 g ai/ha)): 0.5
biomass accumulation 14 days after treatment, % of untreated ([2]; dose 0.5 (0.5x, 40 g ai/ha)): 99.804%
plant height 14 days after treatment, % of untreated ([2]; dose 0.5 (0.5x, 40 g ai/ha)): 98.7%
Phytotoxicity Index (0-9) 14 days after treatment ([2]; dose 1 (1x, 80 g ai/ha)): 0.5
biomass accumulation 14 days after treatment, % of untreated ([2]; dose 1 (1x, 80 g ai/ha)): 100.0%
plant height 14 days after treatment, % of untreated ([2]; dose 1 (1x, 80 g ai/ha)): 97.0%
Phytotoxicity Index (0-9) 14 days after treatment ([2]; dose 2 (2x, 160 g ai/ha)): 0.5
biomass accumulation 14 days after treatment, % of untreated ([2]; dose 2 (2x, 160 g ai/ha)): 94.3%
plant height 14 days after treatment, % of untreated ([2]; dose 2 (2x, 160 g ai/ha)): 96.7%
Phytotoxicity Index (0-9) 14 days after treatment ([2]; dose 3 (3x, 240 g ai/ha)): 0.5
biomass accumulation 14 days after treatment, % of untreated ([2]; dose 3 (3x, 240 g ai/ha)): 90.8%
plant height 14 days after treatment, % of untreated ([2]; dose 3 (3x, 240 g ai/ha)): 93.8%
Phytotoxicity Index (0-9) 14 days after treatment ([2]; dose 4 (4x, 320 g ai/ha)): 0.5
biomass accumulation 14 days after treatment, % of untreated ([2]; dose 4 (4x, 320 g ai/ha)): 87.8%
plant height 14 days after treatment, % of untreated ([2]; dose 4 (4x, 320 g ai/ha)): 92.0%
Phytotoxicity Index (0-9) 14 days after treatment ([2]; dose 5 (5x, 400 g ai/ha)): 0.6
biomass accumulation 14 days after treatment, % of untreated ([2]; dose 5 (5x, 400 g ai/ha)): 72.1%
plant height 14 days after treatment, % of untreated ([2]; dose 5 (5x, 400 g ai/ha)): 65.4%
Phytotoxicity Index (0-9) 14 days after treatment ([2]; dose 6 (6x, 480 g ai/ha)): 1.0
biomass accumulation 14 days after treatment, % of untreated ([2]; dose 6 (6x, 480 g ai/ha)): 63.2%
plant height 14 days after treatment, % of untreated ([2]; dose 6 (6x, 480 g ai/ha)): 58.0%
PI (0-50), group with chlorosis, stunting and deformation [3]: greater than 35
Mean Phytotoxicity Index (0-50) ([4]; 160 g ai/ha applied at R1, 14 DAT): 11.7
Mean Phytotoxicity Index (0-50) ([4]; 160 g ai/ha applied at R1, 21 DAT): 23.3
Mean Phytotoxicity Index (0-50) ([4]; 160 g ai/ha applied at V8, 14 DAT): 15
Mean Phytotoxicity Index (0-50) ([4]; 160 g ai/ha applied at V8, 21 DAT): 5
outcome of the herbicide treatment ([5]; 160 gr/ha at V4): killed
Mean Phytotoxicity Index (0-9) ([5]; 160 gr/ha at V4, fourteen days after treatment): 9
